In article PMC2199305 (Environmental Health Perspectives, 2007):
Read-outs that look alike come from different tables or passages of the source.

Legend:
[1] = biological target: T1, GST-ERR-γ –LBD (human ERR-γ) (Homo sapiens, UniProt P62508); assay: Competitive receptor binding assay using [3H]BPA as tracer; conditions: for fold weaker binding affinity for ERR-γ than bisphenol E: ratio of IC50 vs bisphenol E
T1 construct: made in house; host or cells: Escherichia coli BL21α (vector pGEX6P-1)
T1 sequence (P62508 233-457 limits assumed): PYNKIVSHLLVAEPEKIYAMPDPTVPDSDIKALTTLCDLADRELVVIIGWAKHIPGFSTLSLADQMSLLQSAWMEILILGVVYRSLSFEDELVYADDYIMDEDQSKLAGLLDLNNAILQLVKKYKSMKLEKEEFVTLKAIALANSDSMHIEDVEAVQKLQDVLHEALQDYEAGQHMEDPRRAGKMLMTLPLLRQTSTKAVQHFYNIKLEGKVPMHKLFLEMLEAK
Text: ERR-γ –LBD was amplified from a human kidney cDNA library (Clontech Laboratories, Mountain View, CA, USA) by polymerase chain reaction (PCR) using gene-specific primers and cloned into pGEX6P-1 (Amersham Biosciences, Piscataway, NJ, USA). Glutathione S-transferase (GST)–fused receptor protein expressed in Escherichia coli BL21α was purified on an affinity column of glutathione-sepharose 4B (GE Healthcare BioSciences Co., Piscataway, NJ, USA) to obtain GST-ERR-γ –LBD.
The reaction mixtures were incubated for 2 hr at 4°C and free radioligand was removed with 1% DCC by filtration as described above. Radioactivity was determined on a liquid scintillation counter (TopCount NXT; PerkinElmer Life Sciences Tokyo, Japan). […] Each assay was performed in duplicate and repeated at least three times.

[2] = biological target: T2, human ERR-γ (Homo sapiens, UniProt P62508); conditions: HeLa cells; for inhibition of the inverse agonist (deactivation) activity of 4-OHT: added along with 1.0 μM 4-OHT; for effect on constitutive basal activity of ERR-γ: compound alone
T2 sequence (P62508 1-458): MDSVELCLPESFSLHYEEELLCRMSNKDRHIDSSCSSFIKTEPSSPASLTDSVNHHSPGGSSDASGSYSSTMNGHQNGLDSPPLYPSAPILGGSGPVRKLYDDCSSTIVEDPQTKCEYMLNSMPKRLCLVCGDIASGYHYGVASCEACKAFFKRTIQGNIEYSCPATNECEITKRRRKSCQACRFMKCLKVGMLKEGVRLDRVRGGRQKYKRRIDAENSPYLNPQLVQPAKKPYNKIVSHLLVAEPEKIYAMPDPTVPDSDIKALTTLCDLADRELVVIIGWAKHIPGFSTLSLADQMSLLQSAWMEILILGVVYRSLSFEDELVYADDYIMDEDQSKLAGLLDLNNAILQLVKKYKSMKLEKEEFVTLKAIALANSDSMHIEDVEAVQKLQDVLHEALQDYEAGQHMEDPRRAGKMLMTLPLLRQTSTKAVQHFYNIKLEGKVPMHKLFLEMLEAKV
Method: HeLa cells were maintained in Eagle’s MEM (EMEM; Nissui, Tokyo, Japan) in the presence of 10% (vol/vol) fetal bovine serum at 37°C. For luciferase assays, HeLa cells were seeded at 5 × 10^5 cells/6-cm dish for 24 hr and then transfected with 4 μg of reporter gene (pGL3/3 × ERRE) and 3 μg of ERR-γ expression plasmids (pcDNA3/ERR-γ ) by Lipofectamine Plus reagent (Invitrogen Japan, Tokyo, Japan) according to the manufacturer’s protocol. Approximately 24 hr after transfection, cells were harvested and plated into 96-well plates at 5 × 10^4 cells/well. The cells were then treated with varying doses of chemicals diluted with 1% bovine serum albumin/phosphate-buffered saline (BSA/PBS, vol/vol). […] After 24 hr, luciferase activity was measured with the appropriate reagent using a Luciferase Assay System (Promega, Madison, WI, USA) according to the manufacturer’s instructions. […] Cells treated with 1% BSA/PBS were used as a vehicle control. Each assay was performed in triplicate and repeated at least three times.

[3] = biological target: T3, GST-ER-α –LBD (Homo sapiens, UniProt P03372); assay: Competitive binding assay using [3H]E2; conditions: for binding to ER-α (in words): [3H]E2 tracer; for ERR-γ receptor selectivity ER-α (IC50, nM)/ERR-γ (IC50, nM): ratio of IC50 values, ER-α over ERR-γ; for IC50: read-out: Binding affinity for ER-α (IC50)
T3 sequence (P03372 311-547 limits assumed): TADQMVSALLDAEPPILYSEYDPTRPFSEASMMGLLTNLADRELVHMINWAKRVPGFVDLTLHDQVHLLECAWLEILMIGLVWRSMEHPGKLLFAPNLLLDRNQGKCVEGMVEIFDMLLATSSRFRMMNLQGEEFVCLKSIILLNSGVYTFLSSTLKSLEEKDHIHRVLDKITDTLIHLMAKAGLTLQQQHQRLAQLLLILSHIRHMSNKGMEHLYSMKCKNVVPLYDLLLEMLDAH

[4] = read-out: Binding affinity for ERR-γ (IC50)

Compound | IC50 [1, 4] | binding to ER-α (in words) [3] | ERR-γ receptor selectivity ER-α (IC50, nM)/ERR-γ (IC50, nM) [3] | also measured
CCc1ccc(O)cc1 [4-Ethylphenol, 4-ethylphenol] | 289 ± 45.9 nM | – | – | –
CC(C)c1ccc(O)cc1 [4-Isopropylphenol, 4-isopropylphenol] | – | – | – | IC50 [1]: 71.1 ± 7.73 nM
CC/C(=C(\c1ccc(O)cc1)c1ccc(OCCN(C)C)cc1)c1ccccc1 [4-OHT, 4-hydroxytamoxifen, reference compound] | – | – | – | deactivation of ERR-γ (inverse agonist activity) ([2]; 1.0 μM): approximately 0.4 fold
CCC(C)(C)c1ccc(O)cc1 [4-tert-Amylphenol, 4-tert-amylphenol] | 33.2 ± 2.85 nM | almost completely inactive | Exclusively ERR-γ | –
CC(C)(C)c1ccc(O)cc1 [4-tert-Butylphenol, 4-tert-butylphenol] | – | almost completely inactive | – | –
CC(C)(c1ccccc1)c1ccc(O)cc1 [4-α-Cumylphenol, 2-(4-hydroxyphenyl)-2-phenylpropane] | – | – | – | IC50 [3]: 4770 nM
CC(C)(c1ccc(O)cc1)c1ccc(O)cc1 [BPA, 2,2-bis(4-hydroxyphenyl)propane] | – | – | – | IC50 [1]: 9.78 ± 0.87 nM; inhibition of the binding of [3H]BPA [1]: almost completely inhibits; inhibition of the inverse agonist (deactivation) activity of 4-OHT [2]: antagonizes or inhibits the deactivation activity of 4-OHT in a dose-dependent manner; effect on constitutive basal activity of ERR-γ [2]: retained a high constitutive basal activity
Oc1ccc(C(c2ccc(O)cc2)(C(F)(F)F)C(F)(F)F)cc1 [Bisphenol AF, 2,2-bis(4-hydroxyphenyl)hexafluoropropane] | 358 ± 30.5 nM | – | – | inhibition of the inverse agonist (deactivation) activity of 4-OHT [2]: inhibited the inverse agonist activity of 4-OHT; effect on constitutive basal activity of ERR-γ [2]: retain a high constitutive basal activity
CC(c1ccccc1)(c1ccc(O)cc1)c1ccc(O)cc1 [Bisphenol AP, 4,4′-(1-phenylethylidene)bisphenol] | 123 ± 15.1 nM | – | – | fold weaker binding affinity for ERR-γ than bisphenol E [1]: approximately 15 fold; IC50 [3]: 361 ± 22.6 nM
CCC(C)(c1ccc(O)cc1)c1ccc(O)cc1 [Bisphenol B, 2,2-bis(4-hydroxyphenyl)butane] | 26.3 ± 2.65 nM | – | about 9.5 | IC50 [3]: 246 ± 29.7 nM
CC(c1ccc(O)cc1)c1ccc(O)cc1 [Bisphenol E, 2,2-bis(4-hydroxyphenyl)ethane] | 8.14 ± 0.83 nM | almost completely inactive | Exclusively ERR-γ | inhibition of the inverse agonist (deactivation) activity of 4-OHT [2]: inhibited the inverse agonist activity of 4-OHT; effect on constitutive basal activity of ERR-γ [2]: retain a high constitutive basal activity
Oc1ccc(Cc2ccc(O)cc2)cc1 [Bisphenol F, bis(4-hydroxyphenyl)methane] | 131 ± 17.9 nM | almost completely inactive | Exclusively ERR-γ | fold weaker binding affinity for ERR-γ than bisphenol E [1]: approximately 16 fold
